Assays:
Hs-578T cells = experiment: MTT cell viability assay; assay type: cell-based, human; conditions: Homo sapiens, Hs-578T, 72 h, 10%FBS growth media
Experimental: (§1) Straightforward, the tetrazolium salt 3-(4,5-methyltiazol-2yl-)-2,5diphenyl-tetrazolium bromide (MTT) (Applichen, Darmstadt, Germany) was added to cells, incubated for 2–4 h at 37 °C, and lysed in 10% SDS.

BT-549 cells = experiment: MTT cell viability assay; assay type: cell-based, human; conditions: Homo sapiens, BT-549, 72 h, 10%FBS growth media
Experimental: as §1

Ishikawa cells = experiment: MTT cell viability assay; assay type: cell-based, human; conditions: Homo sapiens, Ishikawa, read-out: IC50 (μM) ISHIKAWA, 72 h, 10%FBS growth media
Experimental: as §1

MCF-7/BUS cells = experiment: MTT cell viability assay; assay type: cell-based, human; conditions: Homo sapiens, MCF7/BUS; 72 h, 10%FBS growth media, MTT; read-out: IC50 (μM) MCF-7/BUS
Experimental: as §1

MCF-10A cells [1] = experiment: MTT cell viability assay; assay type: cell-based, human; conditions: Homo sapiens, MCF-10A, 72 h, 10%FBS growth media
Experimental: as §1

MDA-MB-231 cells = experiment: MTT cell viability assay; assay type: cell-based, human; conditions: Homo sapiens, MDA-MB-231, 72 h, 10%FBS growth media
Experimental: as §1

SK-BR-3 cells = experiment: MTT cell viability assay; assay type: cell-based, human; conditions: Homo sapiens, SK-BR-3, 72 h, 10%FBS growth media
Experimental: as §1

MCF-7 cells [2] = experiment: MTT cell viability assay; assay type: cell-based, human; conditions: Homo sapiens, MCF7, 72 h, 10%FBS growth media
Experimental: as §1

[3] = tested on: androgen receptor (AR)-dependent transcriptional activity, MDA-kb2 cells; experiment: AR-mediated transcription, luciferase reporter in MDA-kb2 cells (testosterone); conditions: 100 nM Testosterone; compounds 1–10 µM
MCF-7 cells [4] = experiment: Drug combination assay with 4-OHTAM (MTT, Chou-Talalay); conditions: for IC50: Homo sapiens, MCF7, 72 h, read-out: IC50, cell viability inhibition, single agent
Experimental: (§2) Cells were seeded at 5000 and 7500 cells, per well, respectively, and cell viability was assessed by MTT assays 72 h after treatment. Briefly, cells were incubated with constant ratio combinations of indicated test compounds by doubling dilutions of the individual drugs over a wide range of concentrations [43]. […] Dose-effect curves of the individual or combined compounds were plotted and assessed by the median effect method of Chou and Talalay [43] using Calcusyn software 2.0 (Biosoft, Cambridge, UK), thus obtaining the combination index (CI) values. CI values less than 1, equal to 1, and greater than 1 indicated synergism, addition, and antagonism, respectively.

[5] = tested on: total STAT5 protein level in T47D cells; experiment: Immunoblotting; assay type: cell-based, human; conditions: 24–72 h
Experimental: Then, they were washed with ice-cold PBS supplemented with 1 mM ortovanadate and lysed with RIPA buffer containing protease and phosphatase inhibitors (Thermo Fisher Scientific, Waltham, MA, USA). Equal protein amounts were analyzed by SDS–PAGE, and transferred to nitrocellulose membranes (Thermo Fisher Scientific, Waltham, MA, USA), blocked with Tris-buffered saline/0.05% Tween 20 (TBS-T) containing 5% blotto (Merck, Darmstadt, Germany) or 5% BSA for total and phosphorylated proteins, respectively. Immunoblotting was carried out with mouse anti-ERα F-10 (Santa Cruz Biotech, Santa Cruz, CA, USA), rabbit total anti-STAT5 (Cell Signaling Technology, Leiden, The Netherlands) or mouse anti-polyubiquitin (EMD Millipore, Burlington, MA, USA). After washing, membranes were incubated with horseradish peroxidase-conjugated secondary antibodies (Bio-Rad) for 1 h at room temperature. The β-actin antibody (Santa Cruz Biotech, CA, USA) was used as the loading control. Finally, protein bands were visualized by using Clarity™ Western ECL Substrate (Bio-Rad) in the ChemiDoc XRS system (Bio-Rad) and were analyzed with Quantity One software (Bio-Rad).

[6] = biological target: T1, native ERα from rat uterine cytosol (Rattus norvegicus, UniProt P06211); experiment: Radiolabeled E2 competitor binding assay in rat uterine cytosol (RUC)
T1 construct: from tissue; host or cells: uterine cytosol of ovariectomized Sprague-Dawley rats
T1 sequence (P06211 whole entry): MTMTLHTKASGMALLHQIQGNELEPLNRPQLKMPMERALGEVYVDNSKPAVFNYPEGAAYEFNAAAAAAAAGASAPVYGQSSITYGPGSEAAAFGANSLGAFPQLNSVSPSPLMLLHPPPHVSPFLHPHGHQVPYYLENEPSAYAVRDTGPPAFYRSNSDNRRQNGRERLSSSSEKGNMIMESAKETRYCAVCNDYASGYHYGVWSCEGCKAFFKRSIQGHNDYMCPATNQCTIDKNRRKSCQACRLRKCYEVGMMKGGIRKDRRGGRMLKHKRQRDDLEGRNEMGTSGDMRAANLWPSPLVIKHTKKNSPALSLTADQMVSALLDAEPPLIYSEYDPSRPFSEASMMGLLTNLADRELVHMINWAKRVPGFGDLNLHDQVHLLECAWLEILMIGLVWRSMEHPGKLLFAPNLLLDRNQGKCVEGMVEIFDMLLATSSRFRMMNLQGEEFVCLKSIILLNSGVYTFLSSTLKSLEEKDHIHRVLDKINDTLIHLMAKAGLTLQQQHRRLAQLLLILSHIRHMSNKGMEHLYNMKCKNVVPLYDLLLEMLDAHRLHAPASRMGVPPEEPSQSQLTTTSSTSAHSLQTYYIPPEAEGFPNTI
Experimental: Animal studies were approved by the Bioethics Committee of the University of Las Palmas de Gran Canaria (OEBA-ULPGC 40/2020), and the experiments were carried out according to OECD guidelines (ER-RVC OPPTS 890.1250). ER was obtained from rat uterine cytosol (RUC). Briefly, RUC was extracted from 8–12 weeks old Sprague-Dawley rats 13–16 days after they were ovariectomized under ketamine (75 mg/kg)/medetomidine (1 mg/kg) anesthesia. Uteri were removed, trimmed free of adipose tissue, blotted, weighed and frozen on liquid nitrogen until RUC isolation. Then, 100 mg of uteri per ml of ice-cold TEGM buffer (10 mM Tris, 1.5 mM EDTA, 10% glycerol, 3 mM MgCl2, 1 mM PMSF, 1 mM DTT, pH 7.4) were homogenized by using a Polytron PT3000 homogenizer (Kinematica, Malters, Switzerland) at 15,000 rpm for 3 bursts of 30″ each. The homogenate was sedimented, and the supernatant was centrifuged at 105,000 g for 60 min at 4 °C to obtain RUC. Protein concentration was determined by Bradford´s assay (Bio-Rad, Irvine, CA, USA), and 2 mg/mL of RUC was taken from all samples [35]. […] Then, 200 μL of DCC suspension (0.8% charcoal: 0.08% dextran; w:w) in cold TE buffer was added to each tube and incubated for 10 min before DCC was centrifuged at 3000 g for 10 min at 4 °C. Supernatant (200 μL) was obtained to measure total and non-specific bound radioactivity in TRICARB 4810 LSC counter (PerkinElmer). […]

MCF-10A cells [7] = experiment: Drug combination assay with 4-OHTAM (MTT); conditions: Homo sapiens, 72 h, read-out: IC50, cell viability inhibition
Experimental: as §2

[8] = combination with 4-OHTAM, constant ratio, 72 h, CI <1 synergism

Row | SMILES | IC50 (Hs-578T cells) [µM] | IC50 (BT-549 cells) [µM] | IC50 (Ishikawa cells) [µM] | IC50 (MCF-7/BUS cells) [µM] | IC50 (MCF-10A cells [1]) [µM] | IC50 (MDA-MB-231 cells) [µM] | IC50 (SK-BR-3 cells) [µM] | IC50 (MCF-7 cells [2]) [µM] | effect on T-induced luciferase activity [3] | IC50 (MCF-7 cells [4]) [nM] | CI for ED75 (MCF-7 cells [4]; [8]) | CI for ED90 (MCF-7 cells [4]; [8]) | effect on total STAT5 protein level [5] | IC50 [6] [nM] | IC50 (MCF-10A cells [7]) [nM] | CI for ED25 (MCF-7 cells [4]; [8])
1 | O=C1C(c2ccc([N+](=O)[O-])cc2)=CC(O)(c2ccccc2)N1Cc1ccccc1 (stereo not shown) [compound 35, 1-benzyl-5-hydroxy-3-(4-nitrophenyl)-5-phenyl-1H-pyrrol-2(5H)-one] | 8.22 ± 1.78 | 4.19 | 1.29 ± 0.38 | 2.64 ± 0.88 | 3.16 ± 0.09 | 9.08 ± 0.93 | 2 ± 0.18 | 2.59 ± 0.34 | Neither 4-OHTAM nor compounds 32 or 35 displayed cross-activation | 2270 | 0.26 ± 0.07 | 0.32 ± 0.13 | this effect was not provoked | 76600 ± 1300 | > 560 | –
2 | Cc1ccc(C2=CC(O)(c3ccccc3)N(Cc3ccccc3)C2=O)cc1C (stereo not shown) [compound 32, 1-benzyl-3-(3,4-dimethylphenyl)-5-hydroxy-5-phenyl-1H-pyrrol-2(5H)-one] | > 10 | 4.89 ± 0.96 | 0.27 ± 0.09 | 5.32 ± 2.09 | 0.08 | 7.63 ± 2.38 | 1.51 ± 0.09 | 2.54 ± 0.49 | Neither 4-OHTAM nor compounds 32 or 35 displayed cross-activation | 690 | 0.6725 ± 0.06 | 0.6395 ± 0.09 | this effect was not provoked | 128400 ± 1250 | 350 | 0.762 ± 0.02
